The results in this text go back to patent US20210130790A1, “Infected Cell Cultures” (Merck Patent GmbH, priority 2017, published 2021).

For this test, the system named is Pb-Luc (Plasmodium berghei constitutively expressing luciferase) sporozoite infection of HC-04 3D cultures. Kind of test: Drug activity on Pb-Luc sporozoite infection of HC-04 3D cultures (spheroids), luciferase readout. The class given is cell-based. As for the experimental part:
FIG. 19—Analysis of drug activity in Pb infected-HC-04 spheroids. Dose-response curve of 3D cultures treated with ATQ. Results are expressed as percentage of infection normalized to the non-treated control. Results are represented as the mean of up to two independent experiments.
Initially, a preliminary assay employing reporter lines of Plasmodium berghei, constitutively expressing luciferase (Pb-Luc) or GFP (Pb-GFP), was performed to optimize the range of cell-to-sporozoite ratios and mode of contact. Pb-Luc parasites enable measuring infection by luminescence readings of cell lysates following addition of the luciferin substrate. Pb-GFP parasites enable measuring infection flow cytometry analysis. Such analyses allow measuring the percentage of invaded cells (% GFP-positive cells) and the development of the parasite inside the hepatic cells (GFP intensity). […]
HC-04 3D cultures were infected with Pb-Luc in the optimized conditions described above (cell density of 2.5×10^4 cell/well in a 1:2 ratio). The assessment of drug effect in the infection was performed by incubating the drug at a range of concentrations from 0.01 to 100 nM for 1 hour before incubation with the sporozoites and the readout was performed 48 hours after sporozoites addition, described as incubation regimen (A) in the detailed description of the invention section (FIG. 1). […]

SMILES strings stand for the structures.

On to `O=C1C(O)=C([C@H]2CC[C@H](c3ccc(Cl)cc3)CC2)C(=O)c2ccccc21` [ATQ, Atovaquone], for which the IC50 (Plasmodium berghei, HC04, 2.5×10^4 cell/well, 1:2 cell-to-sporozoite ratio, drug added 1 hour before sporozoites, readout 48 hours after sporozoite addition (regimen A), read-out: half inhibitory concentration (IC50) for sporozoite infection) was determined as 0.6 nM. The decrease of infection entry (highest concentrations tested (range 0.01 to 100 nM), readout 48 hours, normalized to non-treated control) is recorded as “more than 90%”.
